Test results from US12391664B2, “GluN2C/D subunit selective antagonists of the N-methyl-D-aspartate receptor” (Emory University, priority 2018, dated 2025).
Like-named read-outs stand apart in the source and are kept apart here.

Key:
Format in all cases: cell-based
[1] = biological target: T1, recombinant rat GluN1/GluN2C (Rattus norvegicus, UniProt P35439+Q00961); test: Two-electrode voltage-clamp recordings in Xenopus laevis oocytes, GluN2C; settings: oocytes, 100 μM glutamate and 30 μM glycine; read-out: GluN2C IC50
T1 construct: expressed in transfected cells; host or cells: Xenopus laevis oocytes injected with cRNA (GluN1:GluN2 ratio 1:2)
Protocol: (§1) All target compounds were evaluated for activity by the Traynelis laboratory at Emory University using two-electrode voltage-clamp recordings performed in Xenopus laevis oocytes expressing recombinant GluN2A-D subunits (Table 1). […] Two ester compounds 997-65 and 997-66 also performed no inhibition at GluN2A to GluN2D receptors. […] Consequently, for the compounds that Acker et al. already published, it was necessary to increase the concentration to 100 μM when collecting data for a concentration effect curve. […] Therefore, under this condition, we can only conclude that compound 997-67 remained potent at GluN2C/D-containing receptors, but its selectivity over GluN2A- and GluN2B-containing receptors could not be compared to 997-57. […] Finally, replacing the carboxylic acid to the bio-isostere amide yielded compounds 997-96 and 997-115, which dropped the potency 2- to 4-fold in comparison to their corresponding acids 997-74 and 997-114.
(§2) Two-electrode voltage-clamp recordings were performed in Xenopus laevis oocytes that were injected with mRNA to express recombinant rat GluN1/GluN2A, GluN1/GluN2B, GluN1/GluN2C, and GluN1/GluN2D. The recordings using unfertilized oocytes from Xenopus laevis were permitted by Emory University Institutional Animal Care and Use Committee (IACUC). An automatic injector (Nanoject II, Drummond Scientific) was used for cRNA injection using the pipettes filled with mineral oil. The cRNA that transcribed in vitro via the mMessage Machine kit (Ambion) was diluted with nuclease-free water, and then injected at GluN1/GluN2 with a ratio of 1:2. The oocytes were stored in Barth's solution that contained 88 mM NaCl, 5.0 mM Tris-HCl, 2.4 mM NaHCO3, 1.0 mM KCl, 0.84 mM MgSO4, 0.41 mM CaCl2, 0.33 mM Ca(NO3)2, 0.1 mg/ml gentamycin sulfate, 1.0 U/ml penicillin, and 1 μg/ml streptomycin at a pH of 7.4 and temperatures of 15-17° C. for two to five days before the two-electrode voltage-clamp recordings. When recording, the oocytes were placed in a perfusion chamber and continually washed with the recording solution comprised of 90 mM NaCl, 1.0 mM KCl, 0.50 mM BaCl2, 0.005 mM EDTA, and 10 mM HEPES at a pH of 7.4 and a temperature of 23° C. Glass electrodes with a tip resistance of 0.5 to 2.5 MΩ were obtained from thin-walled glass capillary tubes. Voltage electrodes and current electrodes were filled with 0.3 M and 3.0 M KCl, respectively. The recordings were executed with the oocytes membrane potential holding at −40 m V by an OC-725 amplifier (Warner Instrument Co). All compounds were dissolved in dimethyl sulfoxide (DMSO) as 20 mM stock solutions and future diluted to reach the desired concentration (0.05-0.5% (vol/vol) DMSO) in recording solution comprised of 30 μM glycine and 100 μM glutamate. Each compound was recorded 3-7 times in the least 4 oocytes from at least 2 different Xenopus laevis.
(§3) To evaluate the inhibition of compounds, the concentration-response curve was fitted with the average two-electrode voltage-clamp recording results with the equation
(§4) [formula] • where IC50 is the concentration of compounds that inhibit half maximal of the current response and N is the Hill slope.

[2] = biological target: T2, recombinant rat GluN1/GluN2D (Rattus norvegicus, UniProt Q62645); test: Two-electrode voltage-clamp recordings in Xenopus laevis oocytes, GluN2D
T2 construct: expressed in transfected cells; host or cells: Xenopus laevis oocytes injected with cRNA (GluN1:GluN2 ratio 1:2)
Protocol: as §1, §2, §3, §4

[3] = biological target: T3, recombinant rat GluN1/GluN2D (Rattus norvegicus, UniProt P35439+Q62645); test: as above
T3 construct: expressed in transfected cells; host or cells: Xenopus laevis oocytes injected with cRNA (GluN1:GluN2 ratio 1:2)
Protocol: as §1, §2, §3, §4

[4] = biological target: T4, recombinant rat GluN1/GluN2A (Rattus norvegicus, UniProt P35439+Q00959); test: Two-electrode voltage-clamp recordings in Xenopus laevis oocytes, GluN2A; settings: oocytes, 100 μM glutamate and 30 μM glycine
T4 construct: expressed in transfected cells; host or cells: Xenopus laevis oocytes injected with cRNA (GluN1:GluN2 ratio 1:2)
Protocol: as §1, §2, §3, §4

[5] = biological target: T5, recombinant rat GluN1/GluN2B (Rattus norvegicus, UniProt P35439+Q00960); test: Two-electrode voltage-clamp recordings in Xenopus laevis oocytes, GluN2B; settings: oocytes, 100 μM glutamate and 30 μM glycine
T5 construct: expressed in transfected cells; host or cells: Xenopus laevis oocytes injected with cRNA (GluN1:GluN2 ratio 1:2)
Protocol: as §1, §2, §3, §4

[6] = oocytes, 100 μM glutamate and 30 μM glycine, read-out: GluN2D IC50
[7] = read-out: IC50 at GluN2D-containing receptors

T1 sequence (Q00961 20-1237, other chains not shown): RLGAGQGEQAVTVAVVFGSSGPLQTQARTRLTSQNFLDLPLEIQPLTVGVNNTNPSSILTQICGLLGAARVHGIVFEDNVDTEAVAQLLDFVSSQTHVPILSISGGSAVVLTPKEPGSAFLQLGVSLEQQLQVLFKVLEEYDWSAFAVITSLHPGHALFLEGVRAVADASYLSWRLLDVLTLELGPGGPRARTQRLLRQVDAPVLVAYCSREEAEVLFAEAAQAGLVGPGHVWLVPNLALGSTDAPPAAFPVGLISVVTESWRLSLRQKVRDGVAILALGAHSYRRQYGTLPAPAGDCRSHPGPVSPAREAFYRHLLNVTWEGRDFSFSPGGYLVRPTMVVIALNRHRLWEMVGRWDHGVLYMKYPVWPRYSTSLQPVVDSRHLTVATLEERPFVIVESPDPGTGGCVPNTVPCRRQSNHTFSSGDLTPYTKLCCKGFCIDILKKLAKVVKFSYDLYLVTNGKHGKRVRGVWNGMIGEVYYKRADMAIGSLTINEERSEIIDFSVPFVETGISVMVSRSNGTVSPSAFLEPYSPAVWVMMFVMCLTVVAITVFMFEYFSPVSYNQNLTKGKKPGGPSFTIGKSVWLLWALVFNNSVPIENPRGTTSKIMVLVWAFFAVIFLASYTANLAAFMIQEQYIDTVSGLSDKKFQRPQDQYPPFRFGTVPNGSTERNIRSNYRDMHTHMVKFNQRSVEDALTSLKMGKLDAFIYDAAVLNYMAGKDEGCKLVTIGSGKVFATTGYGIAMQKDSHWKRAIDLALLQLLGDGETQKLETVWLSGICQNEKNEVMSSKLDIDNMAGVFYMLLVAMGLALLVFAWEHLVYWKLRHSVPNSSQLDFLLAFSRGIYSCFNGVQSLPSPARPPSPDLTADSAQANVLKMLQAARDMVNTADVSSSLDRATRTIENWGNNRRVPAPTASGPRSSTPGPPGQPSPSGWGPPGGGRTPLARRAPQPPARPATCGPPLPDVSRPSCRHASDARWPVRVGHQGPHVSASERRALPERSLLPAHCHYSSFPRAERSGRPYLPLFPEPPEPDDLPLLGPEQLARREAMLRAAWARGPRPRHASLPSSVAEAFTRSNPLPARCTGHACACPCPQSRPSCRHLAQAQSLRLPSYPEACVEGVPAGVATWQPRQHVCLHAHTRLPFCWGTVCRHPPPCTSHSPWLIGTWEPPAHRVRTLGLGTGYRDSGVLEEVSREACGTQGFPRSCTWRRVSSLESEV
T3 sequence (Q62645 28-1323, other chains not shown): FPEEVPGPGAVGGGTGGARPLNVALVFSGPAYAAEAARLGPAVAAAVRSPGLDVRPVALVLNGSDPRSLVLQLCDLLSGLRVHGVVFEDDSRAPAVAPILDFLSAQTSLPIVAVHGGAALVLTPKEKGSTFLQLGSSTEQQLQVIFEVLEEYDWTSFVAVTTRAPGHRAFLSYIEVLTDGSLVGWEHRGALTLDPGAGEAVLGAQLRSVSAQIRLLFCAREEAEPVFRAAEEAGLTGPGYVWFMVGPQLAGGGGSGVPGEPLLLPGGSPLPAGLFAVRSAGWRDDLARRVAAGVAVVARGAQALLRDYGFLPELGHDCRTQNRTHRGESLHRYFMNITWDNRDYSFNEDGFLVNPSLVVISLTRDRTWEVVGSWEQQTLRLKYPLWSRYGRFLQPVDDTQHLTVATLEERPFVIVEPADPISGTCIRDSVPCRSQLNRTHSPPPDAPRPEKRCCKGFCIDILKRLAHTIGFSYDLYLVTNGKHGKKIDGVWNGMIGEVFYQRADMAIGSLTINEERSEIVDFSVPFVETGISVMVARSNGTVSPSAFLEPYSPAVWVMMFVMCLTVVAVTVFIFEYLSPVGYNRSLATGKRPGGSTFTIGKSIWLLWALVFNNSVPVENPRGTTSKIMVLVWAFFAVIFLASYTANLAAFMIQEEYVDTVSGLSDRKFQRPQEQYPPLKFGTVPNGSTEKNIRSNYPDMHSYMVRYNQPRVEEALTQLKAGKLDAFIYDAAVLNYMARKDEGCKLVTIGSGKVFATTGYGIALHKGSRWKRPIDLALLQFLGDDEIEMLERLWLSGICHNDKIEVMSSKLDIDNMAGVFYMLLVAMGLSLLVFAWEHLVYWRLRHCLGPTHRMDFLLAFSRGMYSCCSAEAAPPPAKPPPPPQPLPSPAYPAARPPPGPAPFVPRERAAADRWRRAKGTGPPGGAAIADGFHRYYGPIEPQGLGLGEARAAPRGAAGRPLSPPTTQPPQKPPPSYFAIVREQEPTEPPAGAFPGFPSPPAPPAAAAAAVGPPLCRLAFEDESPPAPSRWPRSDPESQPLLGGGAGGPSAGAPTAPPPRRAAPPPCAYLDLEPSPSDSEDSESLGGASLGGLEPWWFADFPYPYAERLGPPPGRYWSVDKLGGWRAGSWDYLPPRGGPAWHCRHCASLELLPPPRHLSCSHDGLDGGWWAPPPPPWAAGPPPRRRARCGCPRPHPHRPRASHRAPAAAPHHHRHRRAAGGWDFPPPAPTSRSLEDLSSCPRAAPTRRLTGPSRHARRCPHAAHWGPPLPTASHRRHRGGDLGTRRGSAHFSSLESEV
T2 sequence (Q62645 28-1323, other chains not shown): as above
T4 sequence (Q00959 23-1464, other chains not shown): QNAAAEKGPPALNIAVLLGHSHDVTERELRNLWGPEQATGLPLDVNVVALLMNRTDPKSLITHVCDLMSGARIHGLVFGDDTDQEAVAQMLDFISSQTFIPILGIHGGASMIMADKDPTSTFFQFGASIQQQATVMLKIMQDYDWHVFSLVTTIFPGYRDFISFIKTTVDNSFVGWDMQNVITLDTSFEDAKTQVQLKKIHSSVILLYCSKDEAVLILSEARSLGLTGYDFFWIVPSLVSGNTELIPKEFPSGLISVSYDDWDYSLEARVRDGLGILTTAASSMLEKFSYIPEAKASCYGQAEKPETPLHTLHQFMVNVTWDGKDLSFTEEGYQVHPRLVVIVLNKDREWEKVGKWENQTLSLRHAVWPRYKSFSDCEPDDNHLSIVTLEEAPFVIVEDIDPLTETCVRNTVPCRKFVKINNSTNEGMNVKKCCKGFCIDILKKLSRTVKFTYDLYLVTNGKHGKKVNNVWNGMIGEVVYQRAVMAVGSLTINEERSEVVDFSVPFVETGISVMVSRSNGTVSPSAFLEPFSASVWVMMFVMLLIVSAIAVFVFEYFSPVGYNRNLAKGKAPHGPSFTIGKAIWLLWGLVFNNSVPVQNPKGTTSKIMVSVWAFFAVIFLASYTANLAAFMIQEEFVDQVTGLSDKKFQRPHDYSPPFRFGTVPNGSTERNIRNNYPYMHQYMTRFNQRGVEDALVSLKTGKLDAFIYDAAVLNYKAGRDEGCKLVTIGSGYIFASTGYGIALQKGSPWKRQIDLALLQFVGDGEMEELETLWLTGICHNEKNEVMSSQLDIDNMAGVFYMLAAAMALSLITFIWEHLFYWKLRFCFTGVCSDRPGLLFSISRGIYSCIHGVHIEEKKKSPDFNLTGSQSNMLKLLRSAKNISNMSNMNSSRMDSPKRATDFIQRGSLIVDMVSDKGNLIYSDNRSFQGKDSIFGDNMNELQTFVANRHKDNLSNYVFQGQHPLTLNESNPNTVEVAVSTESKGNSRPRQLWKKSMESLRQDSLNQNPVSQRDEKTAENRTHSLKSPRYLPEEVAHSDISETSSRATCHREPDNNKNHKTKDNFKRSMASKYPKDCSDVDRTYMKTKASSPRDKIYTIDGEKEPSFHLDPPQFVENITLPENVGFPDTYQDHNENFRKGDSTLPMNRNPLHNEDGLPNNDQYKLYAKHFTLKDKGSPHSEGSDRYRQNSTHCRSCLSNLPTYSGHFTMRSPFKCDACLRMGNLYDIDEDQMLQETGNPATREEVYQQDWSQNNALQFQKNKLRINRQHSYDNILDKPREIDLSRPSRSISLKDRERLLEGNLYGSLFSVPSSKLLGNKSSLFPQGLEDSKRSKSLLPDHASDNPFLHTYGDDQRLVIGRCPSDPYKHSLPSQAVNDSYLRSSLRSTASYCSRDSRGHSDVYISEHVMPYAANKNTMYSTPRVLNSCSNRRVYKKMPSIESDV

| SMILES | IC50 [1] | 2B IC50 / 2D IC50 ([2]; ratio of IC50 values) | IC50 [3, 6] | IC50 [4] | IC50 [5] | fold decrease of potency at GluN2D in comparison to 997-74 ([2]; comparator 997-74) | 2A IC50 / 2D IC50 ([2]; ratio of IC50 values) | IC50 [3, 7] |
| --- | --- | --- | --- | --- | --- | --- | --- | --- |
| O=C(O)CCC(=O)N1N=C(c2c(-c3ccc(Cl)cc3)c3ccccc3[nH]c2=O)CC1c1ccc(Cl)s1 (stereo not drawn) [997-111, 4-(3-(4-(4-chlorophenyl)-2-oxo-1,2-dihydroquinolin-3-yl)-5-(5-chlorothiophen-2-yl)-4,5-dihydro-1H-pyrazol-1-yl)-4-oxobutanoic acid] | 1300 nM | 43 | 800 nM | 21000 nM | 34000 nM |  |  |  |
| O=C(CC(F)(F)C(=O)O)N1N=C(c2c(-c3ccc(Cl)cc3)c3ccccc3[nH]c2=O)CC1c1ccc(Cl)cc1 (stereo not drawn) [997-114, 4-(5-(4-chlorophenyl)-3-(4-(4-chlorophenyl)-2-oxo-1,2-dihydroquinolin-3-yl)-4,5-dihydro-1H-pyrazol-1-yl)-2,2-difluoro-4-oxobutanoic acid] | 338 nM | 48 |  | 5670 nM | 8150 nM |  | 33 | 170 nM |
| O=C(O)CCC(=O)N1N=C(c2c(-c3ccc(Cl)s3)c3ccccc3[nH]c2=O)CC1c1ccc(Cl)cc1 (stereo not drawn) [997-108, 4-(5-(4-chlorophenyl)-3-(4-(5-chlorothiophen-2-yl)-2-oxo-1,2-dihydroquinolin-3-yl)-4,5-dihydro-1H-pyrazol-1-yl)-4-oxobutanoic acid] | 670 nM |  | 400 nM | 13000 nM | 23000 nM |  |  |  |
| O=C(O)CCC(=O)N1N=C(c2c(-c3ccc(Cl)cc3)c3ccccc3[nH]c2=O)CC1c1ccc(C(F)(F)F)cc1 (stereo not drawn) [997-112, 4-(3-(4-(4-chlorophenyl)-2-oxo-1,2-dihydroquinolin-3-yl)-5-(4-(trifluoromethyl)phenyl)-4,5-dihydro-1H-pyrazol-1-yl)-4-oxobutanoic acid] | 350 nM | 100 | 200 nM | 13000 nM | 20000 nM |  |  |  |

Next, values leading:

| IC50 [1] | 2B IC50 / 2D IC50 ([2]; ratio of IC50 values) | IC50 [3, 6] | IC50 [4] | IC50 [5] | fold decrease of potency at GluN2D in comparison to 997-74 ([2]; comparator 997-74) | 2A IC50 / 2D IC50 ([2]; ratio of IC50 values) | IC50 [3, 7] | SMILES |
| --- | --- | --- | --- | --- | --- | --- | --- | --- |
| 1600 nM | 37 | 810 nM | 20000 nM | 30000 nM | 16 fold |  |  | O=C(O)CC(F)(F)C(=O)N1N=C(c2c(-c3ccc(Cl)cc3)c3ccccc3[nH]c2=O)CC1c1ccc(F)cc1 (stereo not drawn) [997-104, 4-(3-(4-(4-chlorophenyl)-2-oxo-1,2-dihydroquinolin-3-yl)-5-(4-fluorophenyl)-4,5-dihydro-1H-pyrazol-1-yl)-3,3-difluoro-4-oxobutanoic acid] |
| 170 nM | 36 | 80 nM | 2300 nM | 2900 nM |  |  |  | O=C(O)CC(F)(F)C(=O)N1N=C(c2c(-c3ccc(Cl)cc3)c3ccccc3[nH]c2=O)CC1c1ccc(C(F)(F)F)cc1 (stereo not drawn) [997-113, 4-(3-(4-(4-chlorophenyl)-2-oxo-1,2-dihydroquinolin-3-yl)-5-(4-(trifluoromethyl)phenyl)-4,5-dihydro-1H-pyrazol-1-yl)-3,3-difluoro-4-oxobutanoic acid] |
| 1000 nM |  |  | 5900 nM | 7300 nM |  |  | 400 nM | O=C(O)CC(F)(F)C(=O)N1N=C(c2c(-c3ccc(F)cc3)c3cc(F)ccc3[nH]c2=O)CC1c1ccc(Cl)cc1 (stereo not drawn) [997-102, 4-(5-(4-chlorophenyl)-3-(6-fluoro-4-(4-fluorophenyl)-2-oxo-1,2-dihydroquinolin-3-yl)-4,5-dihydro-1H-pyrazol-1-yl)-3,3-difluoro-4-oxobutanoic acid] |
| 280 nM |  |  | 2600 nM | 4000 nM |  |  | 100 nM | O=C(O)CC(F)(F)C(=O)N1N=C(c2c(-c3ccc(Cl)s3)c3ccccc3[nH]c2=O)CC1c1ccc(Cl)cc1 (stereo not drawn) [997-109, 4-(5-(4-chlorophenyl)-3-(4-(5-chlorothiophen-2-yl)-2-oxo-1,2-dihydroquinolin-3-yl)-4,5-dihydro-1H-pyrazol-1-yl)-3,3-difluoro-4-oxobutanoic acid] |
